Data from patent US3985774A, “Purification of γ-oxo-2-dibenzofuranbutyric acid” (American Home Products Corporation, priority 1972, dated 1976).

What was measured:
[1] = system: carragheenin paw edema; assay: carragheenin paw edema test; assay type: in vivo, rat; conditions: rats; for % INHIBITION of edema / EDEMA (results expressed in grams of mercury displaced): 3 h after carragheenin
Procedure: A. Winter, et al., Proc. Soc. Exp. Biol., lll, 544 (1962). […] A. Winter in "Non-Steroidal Anti-inflammatory Drugs", S. Garattine and M. N. G. Dukes, Eds., Excerpta Medica International Congress, Ser. No. 82, 1965, p. 190.
More particularly exemplified a substantial effect for γ-oxo-2-dibenzofuranbutyric acid is demonstrable at oral doses of 200 mg/kg or less in this paw edema test. In this test rats are treated with the test compound one hour before a 1% suspension of carragheenin in saline is injected into the subplantar area of the hind paw of the rat. Results are obtained by measuring the increase in paw volume caused by the resulting edema three hours later by plethysmography in mercury and expressing values as grams of mercury displaced. Control animals receive the vehicle only. The results are expressed as percent inhibition in edematous swelling calculated as [formula] where Δ control is the increase in volume measured in untreated controls and Δ treated is the increase in volume found in the treated animals.
The following table lists the results obtained for both γ-oxo-2-dibenzofuranbutyric acid (l) and its isomer ll.

[2] = system: inflammatory conditions; assay: antiinflammatory activity (pharmacologic testing); assay type: in vivo; conditions: for antiinflammatory properties / activity: in vivo
[3] = analgesic activity (standard pharmacologic test); conditions: in vivo
Text: (§1) The useful antiinflammatory, analgesic and antipyretic activities of the product of this invention is demonstrable in standard pharmacologic tests, for example, the test described by R. A. Turner in "Screening Method in Pharmacology", Academic Press, New York and London, 1965, pp. 152-163, pp. 100-117 and pp. 298-299, respectively.

[4] = antipyretic activity (standard pharmacologic test); conditions: in vivo
Text: as §1

[5] = system: warm-blooded animals; assay: toxicity / tolerance (acute toxicity tests and prolonged administration); conditions: in vivo
[6] = system: gastrointestinal ulcers; assay: ulcerogenic activity in a modification of a known method; assay type: in vivo; conditions: therapeutic dose levels
[7] = solubility in water; assay type: physicochemical

## O=C(O)CCC(=O)c1ccc2oc3ccccc3c2c1 [γ-oxo-2-dibenzofuranbutyric acid]
[1]; Experiment A, 50 mg/kg, oral
  % INHIBITION of edema: 37%
  EDEMA (results expressed in grams of mercury displaced): 7.7 ± 0.88 grams of mercury displaced
[1]; Experiment A, 100 mg/kg, oral
  % INHIBITION of edema: 54%
  EDEMA (results expressed in grams of mercury displaced): 5.7 ± 0.42 grams of mercury displaced
[1]; Experiment A, 200 mg/kg, oral
  % INHIBITION of edema: 78%
  EDEMA (results expressed in grams of mercury displaced): 2.7 ± 0.36 grams of mercury displaced
[1]; Experiment C, 100 mg/kg
  % INHIBITION of edema: 60%
  EDEMA (results expressed in grams of mercury displaced): 4.8 ± 0.46 grams of mercury displaced
[1]; Rattus norvegicus, oral, read-out: oral dose at which a substantial effect is demonstrable
  minimal effective dose: ≤ 200 mg/kg
[1]; paw edema test
  activity compared with isomer ll (Student's t test): significantly more active than the isomer ll
[2]; acid l versus isomer ll
  antiinflammatory activity compared with isomer ll: somewhat more active
  onset of action compared with isomer ll: quicker onset of action
[2]
  antiinflammatory properties / activity: important antiinflammatory properties
[2]; listed as acid l
  antiinflammatory properties / activity: have antiinflammatory activity
[3]
  analgesic activity: possesses analgesic and antipyretic activity
[4]
  antipyretic activity: possesses analgesic and antipyretic activity
[5]
  side effects: lack of side effects
  therapeutic index: highly favorable therapeutic index
  tolerance: exceptionally well tolerated
  toxicity: low order of toxicity
[6]
  formation of gastrointestinal ulcers: does not cause formation of gastrointestinal ulcers
[7]
  solubility in water: only limited solubility in water

## O=C(O)CCC(=O)c1ccc2c(c1)oc1ccccc12 [γ-oxo-3-dibenzofuranbutyric acid]
[1]; Experiment B, 100 mg/kg
  % INHIBITION of edema: 5%
  EDEMA (results expressed in grams of mercury displaced): 13.6 ± 1.38 grams of mercury displaced
[1]; Experiment B, 200 mg/kg
  % INHIBITION of edema: 34%
  EDEMA (results expressed in grams of mercury displaced): 9.5 ± 1.11 grams of mercury displaced
[1]; Experiment B, 400 mg/kg
  % INHIBITION of edema: 28%
  EDEMA (results expressed in grams of mercury displaced): 10.3 ± 1.05 grams of mercury displaced
[1]; Experiment C, 100 mg/kg
  % INHIBITION of edema: 18%
  EDEMA (results expressed in grams of mercury displaced): 9.9 ± 0.67 grams of mercury displaced
[2]
  antiinflammatory properties / activity: have antiinflammatory activity
